Measurements: ChEMBL document CHEMBL5579818, “Identification of 3-(9H-carbazol-9-yl)-2-(1,3-dioxoisoindolin-2-yl)propanoic acids as promising DNMT1 inhibitors” (Eur J Med Chem, 2024)
pIC50, pKd: −log10 of the molar value. Calls of active or inactive are those of the source. The rule behind the calls is not given here.

Assays:
SiHa = assay: Antiproliferative activity against human SiHa cells incubated for 48 hrs by MTT assay; type: functional, cell-based
A2780 [1] = assay: Antiproliferative activity against human A2780 cells at 100 uM incubated for 48 hrs by MTT assay; type: functional
HeLa [2] = assay: Antiproliferative activity against human HeLa cells incubated for 48 hrs by MTT assay; type: functional, cell-based
A2780 [3] = assay: Antiproliferative activity against human A2780 cells incubated for 48 hrs by MTT assay; type: functional, cell-based; conditions: A2780, 48 h
K562 [4] = assay: Antiproliferative activity against human K562 cells incubated for 48 hrs by MTT assay; type: functional, cell-based; conditions: K562, 48 h
[5] = molecular target: T1, DNA (cytosine-5)-methyltransferase 1 (Homo sapiens, UniProt P26358); assay: Binding affinity to human DNMT1 expressed in Escherichia coli assessed as response unit at 10 uM by SPR analysis
T1 sequence (P26358 whole entry): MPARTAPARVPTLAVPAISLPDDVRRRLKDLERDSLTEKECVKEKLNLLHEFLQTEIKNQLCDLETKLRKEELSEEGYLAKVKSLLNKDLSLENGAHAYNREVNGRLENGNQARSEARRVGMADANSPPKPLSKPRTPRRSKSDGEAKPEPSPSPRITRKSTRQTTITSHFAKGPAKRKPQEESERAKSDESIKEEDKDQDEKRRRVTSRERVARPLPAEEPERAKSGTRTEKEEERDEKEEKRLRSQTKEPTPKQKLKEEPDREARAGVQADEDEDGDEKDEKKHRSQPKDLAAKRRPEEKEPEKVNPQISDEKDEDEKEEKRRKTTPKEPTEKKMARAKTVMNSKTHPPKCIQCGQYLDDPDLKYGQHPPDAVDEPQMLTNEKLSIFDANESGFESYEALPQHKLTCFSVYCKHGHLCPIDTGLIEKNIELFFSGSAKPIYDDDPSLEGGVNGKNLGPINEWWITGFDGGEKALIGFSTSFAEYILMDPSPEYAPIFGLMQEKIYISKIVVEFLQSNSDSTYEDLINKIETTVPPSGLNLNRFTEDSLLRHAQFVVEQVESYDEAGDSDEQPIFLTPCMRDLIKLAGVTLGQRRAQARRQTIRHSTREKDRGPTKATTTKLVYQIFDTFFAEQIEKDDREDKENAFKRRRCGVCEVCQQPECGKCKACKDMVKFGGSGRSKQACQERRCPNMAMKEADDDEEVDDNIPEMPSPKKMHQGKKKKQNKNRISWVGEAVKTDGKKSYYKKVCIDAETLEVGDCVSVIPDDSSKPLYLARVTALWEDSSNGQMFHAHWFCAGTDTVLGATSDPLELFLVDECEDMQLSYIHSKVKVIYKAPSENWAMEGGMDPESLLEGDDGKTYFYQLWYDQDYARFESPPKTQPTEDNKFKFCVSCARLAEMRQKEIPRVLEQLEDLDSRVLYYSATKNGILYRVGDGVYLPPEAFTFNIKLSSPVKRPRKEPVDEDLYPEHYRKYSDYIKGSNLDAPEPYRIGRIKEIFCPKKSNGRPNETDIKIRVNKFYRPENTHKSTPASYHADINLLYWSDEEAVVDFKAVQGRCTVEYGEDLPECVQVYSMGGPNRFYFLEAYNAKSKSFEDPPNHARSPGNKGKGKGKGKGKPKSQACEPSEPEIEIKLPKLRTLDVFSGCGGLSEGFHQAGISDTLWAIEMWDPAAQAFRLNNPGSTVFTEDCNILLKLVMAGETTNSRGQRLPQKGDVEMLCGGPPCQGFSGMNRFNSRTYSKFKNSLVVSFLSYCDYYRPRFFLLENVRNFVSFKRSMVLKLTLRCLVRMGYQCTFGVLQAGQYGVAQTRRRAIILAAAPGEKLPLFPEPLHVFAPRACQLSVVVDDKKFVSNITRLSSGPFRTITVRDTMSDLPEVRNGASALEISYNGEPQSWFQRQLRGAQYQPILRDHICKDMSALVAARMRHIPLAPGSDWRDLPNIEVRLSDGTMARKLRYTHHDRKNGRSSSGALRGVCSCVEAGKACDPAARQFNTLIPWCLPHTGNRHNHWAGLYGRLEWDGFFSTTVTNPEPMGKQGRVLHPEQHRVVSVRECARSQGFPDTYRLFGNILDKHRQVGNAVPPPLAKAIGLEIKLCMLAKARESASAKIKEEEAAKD

[6] = molecular target: T1, DNA (cytosine-5)-methyltransferase 1; assay: Inhibition of DNMT1 (unknown origin) at 250 uM using semi-methylated DNA substrate preincubated for 15 mins followed by substrate and [3H-SAM] addition and measured after 60 mins by microbeta scintillation counting assay relative to control; conditions: time 75.0 min
K562 [7] = assay: Antiproliferative activity against human K562 cells at 100 uM incubated for 48 hrs by MTT assay; type: functional
HeLa [8] = assay: Antiproliferative activity against human HeLa cells at 100 uM incubated for 48 hrs by MTT assay; type: functional
[9] = molecular target: T1, DNA (cytosine-5)-methyltransferase 1; assay: Binding affinity to human DNMT1 expressed in Escherichia coli assessed as equilibrium dissociation constant by SPR analysis
[10] = molecular target: T1, DNA (cytosine-5)-methyltransferase 1; assay: Binding affinity to human DNMT1 in presence of 10 uM SAM by SPR analysis
K562 [11] = assay: Induction of apoptosis in human K562 cells assessed as late apoptotic cells at 40 uM incubated for 48 hrs by Annexin-V/PI staining based flow cytometry assay (reference value: 3.73%); type: functional
K562 [12] = assay: Induction of cell cycle arrest in human K562 cells assessed as G0-G1 phase cells at 40 uM incubated for 48 hrs by PI staining based flow cytometry assay (reference value: 33.58 to 35.82%); type: functional
K562 [13] = assay: Induction of apoptosis in human K562 cells assessed as necrotic cells at 40 uM incubated for 48 hrs by Annexin-V/PI staining based flow cytometry assay (reference value: 0.34%); type: functional
[14] = molecular target: T1, DNA (cytosine-5)-methyltransferase 1; assay: Inhibition of DNMT1 (unknown origin) using semi-methylated DNA substrate preincubated for 15 mins followed by substrate and [3H-SAM] addition and measured after 60 mins by microbeta scintillation counting assay
K562 [15] = assay: Induction of cell cycle arrest in human K562 cells assessed as G2/M phase cells at 60 uM incubated for 48 hrs by PI staining based flow cytometry assay (reference value: 37.35 to 45.32%); type: functional
K562 [16] = assay: Induction of cell cycle arrest in human K562 cells assessed as G2/M phase cells at 40 uM incubated for 48 hrs by PI staining based flow cytometry assay (reference value: 37.35 to 45.32%); type: functional
K562 [17] = assay: Induction of cell cycle arrest in human K562 cells assessed as S phase cells at 40 uM incubated for 48 hrs by PI staining based flow cytometry assay (reference value: 24.10 to 26.83%); type: functional
K562 [18] = assay: Upregulation of TRAIL-R2/Dr5 expression in human K562 cells; type: functional, cell-based
K562 [19] = assay: Induction of apoptosis in human K562 cells assessed as necrotic cells at 60 uM incubated for 48 hrs by Annexin-V/PI staining based flow cytometry assay (reference value: 0.34%); type: functional
K562 [20] = assay: Induction of cell cycle arrest in human K562 cells assessed as G0-G1 phase cells at 20 uM incubated for 48 hrs by PI staining based flow cytometry assay (reference value: 33.58 to 35.82%); type: functional
K562 [21] = assay: Induction of apoptosis in human K562 cells assessed as late apoptotic cells at 20 uM incubated for 48 hrs by Annexin-V/PI staining based flow cytometry assay (reference value: 3.73%); type: functional
K562 [22] = assay: Induction of cell cycle arrest in human K562 cells assessed as G2/M phase cells at 20 uM incubated for 48 hrs by PI staining based flow cytometry assay (reference value: 37.35 to 45.32%); type: functional
K562 [23] = assay: Upregulation of TNFR-1 expression in human K562 cells; type: functional, cell-based
K562 [24] = assay: Induction of apoptosis in human K562 cells assessed as early apoptotic cells at 20 uM incubated for 48 hrs by Annexin-V/PI staining based flow cytometry assay (reference value: 3.18%); type: functional
K562 [25] = assay: Induction of apoptosis in human K562 cells assessed as viable cells at 60 uM incubated for 48 hrs by Annexin-V/PI staining based flow cytometry assay (reference value: 92.12%); type: functional; conditions: read-out: Activity
K562 [26] = assay: Induction of apoptosis in human K562 cells assessed as late apoptotic cells at 60 uM incubated for 48 hrs by Annexin-V/PI staining based flow cytometry assay (reference value: 3.73%); type: functional
K562 [27] = assay: Induction of apoptosis in human K562 cells assessed as viable cells at 40 uM incubated for 48 hrs by Annexin-V/PI staining based flow cytometry assay (reference value: 92.12%); type: functional; conditions: read-out: Activity
K562 [28] = assay: Induction of apoptosis in human K562 cells assessed as early apoptotic cells at 60 uM incubated for 48 hrs by Annexin-V/PI staining based flow cytometry assay (reference value: 3.18%); type: functional
K562 [29] = assay: Induction of cell cycle arrest in human K562 cells assessed as G0-G1 phase cells at 60 uM incubated for 48 hrs by PI staining based flow cytometry assay (reference value: 33.58 to 35.82%); type: functional
K562 [30] = assay: Induction of apoptosis in human K562 cells assessed as necrotic cells at 20 uM incubated for 48 hrs by Annexin-V/PI staining based flow cytometry assay (reference value: 0.34%); type: functional
K562 [31] = assay: Induction of apoptosis in human K562 cells assessed as early apoptotic cells at 40 uM incubated for 48 hrs by Annexin-V/PI staining based flow cytometry assay (reference value: 3.18%); type: functional
K562 [32] = assay: Upregulation of CDKN1A/P21 expression in human K562 cells; type: functional, cell-based
K562 [33] = assay: Induction of apoptosis in human K562 cells assessed as viable cells at 20 uM incubated for 48 hrs by Annexin-V/PI staining based flow cytometry assay (reference value: 92.12%); type: functional; conditions: read-out: Activity
K562 [34] = assay: Induction of cell cycle arrest in human K562 cells assessed as S phase cells at 60 uM incubated for 48 hrs by PI staining based flow cytometry assay (reference value: 24.10 to 26.83%); type: functional
K562 [35] = assay: Induction of cell cycle arrest in human K562 cells assessed as S phase cells at 20 uM incubated for 48 hrs by PI staining based flow cytometry assay (reference value: 24.10 to 26.83%); type: functional

`O=C(O)C(Cn1c2ccc(Cl)cc2c2cc(Cl)cc(Cl)c21)N1C(=O)c2ccccc2C1=O` (racemic) gave a pIC50 (SiHa) of 4.11, an Activity (A2780 [1]) of 59% and a pIC50 (HeLa [2]) of 4.01. For the same compound, the pIC50 (A2780 [3]) was 4.14, the pIC50 (K562 [4]) was 4.34 and the Activity [5] was 65.5 RU. It also gave an inhibition [6] of over 75%, an Activity (K562 [7]) of 91% and an Activity (HeLa [8]) of 52%. It also gave a pKd [9] of 6.80.
In the case of `O=C(O)C(Cn1c2cc(Br)ccc2c2ccc(Br)cc21)N1C(=O)c2ccccc2C1=O` (racemic), the Activity [5] was “Active” and the inhibition [6] was over 75%.
`O=C(O)C(Cn1c2ccc(I)cc2c2cc(I)ccc21)N1C(=O)c2ccccc2C1=O` (racemic) gave a pKd [9] of 6.84.
Work on `O=C(O)C(Cn1c2ccc(Br)cc2c2cc(Br)ccc21)N1C(=O)c2ccccc2C1=O` (racemic) yielded a pKd [10] of 5.39 and a pKd [9] of 5.93.
For `O=C(O)[C@H](Cn1c2ccc(Cl)cc2c2cc(Cl)cc(Cl)c21)N1C(=O)c2ccccc2C1=O`, the Activity (K562 [11]) was 4.25%, the Activity (K562 [12]) was 50.95% and the pIC50 (SiHa) was 4.23. The Activity (K562 [13]) was 0.29%, the pIC50 [14] was 4.40 and the Activity (K562 [15]) was 20.78%. For the same compound, the pIC50 (HeLa [2]) was 4.01, the Activity (K562 [16]) was 27.43% and the Activity (K562 [17]) was 21.62%. For the same compound, the Activity (K562 [18]) was “Active”, the pIC50 (A2780 [3]) was 4.10 and the Activity (K562 [19]) was 1.74%. It also gave a pIC50 (K562 [4]) of 4.36, an Activity (K562 [20]) of 35.18% and an Activity (K562 [21]) of 3.16%. The Activity (K562 [22]) was 33%, the Activity (K562 [23]) was “Active” and the Activity (K562 [24]) was 3.9%. The viability at 60 µM (K562 [25]) was 16.7%, the Activity (K562 [26]) was 27.24% and the viability at 40 µM (K562 [27]) was 93.7%. The Activity (K562 [28]) was 4.28%, the Activity (K562 [29]) was 61.74% and the Activity (K562 [30]) was 0.04%. The Activity (K562 [31]) was 1.75%, the Activity (K562 [32]) was “Active” and the viability at 20 µM (K562 [33]) was 92.9%. It also gave an Activity (K562 [34]) of 17.4%, an Activity (K562 [35]) of 24.1% and a pKd [9] of 6.74.
`CC(C)(C)c1ccc2c(c1)c1cc(C(C)(C)C)ccc1n2C[C@H](C(=O)O)N1C(=O)c2ccccc2C1=O` showed a pIC50 (SiHa) of 4.26, a pIC50 [14] of 4.76 and a pIC50 (HeLa [2]) of 4.22. For the same compound, the pIC50 (A2780 [3]) was 4.46, the pIC50 (K562 [4]) was 4.77 and the pKd [9] was 6.18.
In the case of `Cc1ccc2c(c1)c1cc(C)ccc1n2CC(C(=O)O)N1C(=O)c2ccccc2C1=O` (racemic), the Activity [5] was “Active” and the inhibition [6] was over 75%.
In the case of `O=C(O)C(Cn1c2ccc(Cl)cc2c2cc(Cl)ccc21)N1C(=O)c2ccccc2C1=O` (racemic), the Activity [5] was “Active” and the inhibition [6] was over 75%.
Work on `O=C(O)[C@@H](Cn1c2ccc(Cl)cc2c2cc(Cl)cc(Cl)c21)N1C(=O)c2ccccc2C1=O` yielded a pIC50 (SiHa) of 4.08, a pIC50 [14] of 6.11 and a pIC50 (HeLa [2]) of 4.05. The pIC50 (A2780 [3]) was 4.16, the pIC50 (K562 [4]) was 4.35 and the pKd [9] was 6.90.
